Test results: PubChem BioAssay (NCI)
Values joined by “and” are separate entries in the source; they are usually repeats but may differ in a detail not shown here. Identical values can stand only once.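 Test compounds were applied to cells in 96-well plates for 48 hours at 5 doses. Here, GI50 denotes the concentration required for 50% inhibition of growth. TGI is the concentration that stops growth completely.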 Where a SMILES comes first, the peptide text is derived from it. Bridges are numbered along the chain shown (N, C = ends). [ ]: non-standard residue; d: D form. ξ: configuration not given here. ξThr(3R) = C[C@@H](O)C(N)C(=O)O; S5 = C=CCCC[C@](C)(N)C(=O)O

What was measured:
Test in all cases: NCI anticancer screen, dose series, 48 h
NCI-H522 lung = tested on: NCI-H522 lung
SK-MEL-5 melanoma = tested on: SK-MEL-5 melanoma
SF-268 CNS = tested on: SF-268 CNS
ACHN renal = tested on: ACHN renal
IGROV1 ovarian = tested on: IGROV1 ovarian
SNB-75 CNS = tested on: SNB-75 CNS
MALME-3M melanoma = tested on: MALME-3M melanoma
SF-295 CNS = tested on: SF-295 CNS

SMILES	GI50 (NCI-H522 lung)	TGI (NCI-H522 lung)	GI50 (SK-MEL-5 melanoma)	TGI (SK-MEL-5 melanoma)	GI50 (SF-268 CNS)	TGI (SF-268 CNS)	GI50 (ACHN renal)	TGI (ACHN renal)	GI50 (IGROV1 ovarian)	TGI (IGROV1 ovarian)	GI50 (SNB-75 CNS)	TGI (SNB-75 CNS)	GI50 (MALME-3M melanoma)	TGI (MALME-3M melanoma)	GI50 (SF-295 CNS)	TGI (SF-295 CNS)
CCN(CC)CCC(CNc1ccnc2cc(Cl)ccc12)c1ccccc1 (centres undefined)	2.58 µM	11.7 µM	1.69 µM	3.07 µM	7.85 µM	41 µM	3.91 µM	14.7 µM	7.98 µM	55.7 µM	2.61 µM	9.82 µM	2.05 µM	3.88 µM	1.83 µM	4.79 µM
NC(=O)CC1(O)C=C(Br)C(=O)C(Br)=C1	0.326 µM	1.44 µM	12.5 µM	25.6 µM	9.09 µM	21.2 µM	3.44 µM	12.3 µM	6.57 µM	30 µM	12.8 µM	26.2 µM	2.12 µM	4.36 µM	12.6 µM	26.5 µM
Nc1cc(C(F)(F)F)c(-c2cc(N3CCOCC3)nc(N3CCOCC3)n2)cn1	0.504 µM and 0.29 µM	3.93 µM and 1.64 µM	0.797 µM and 0.587 µM	3.05 µM and 2.56 µM	0.925 µM and 1.42 µM	> 9.53 µM and 7.1 µM	0.906 µM and 1.14 µM	> 100 µM	0.227 µM and 0.28 µM		0.179 µM and 0.377 µM	1.46 µM and 2.02 µM	0.325 µM and 0.369 µM	2.53 µM and 4.95 µM	0.463 µM and 0.613 µM	2.51 µM and 4.26 µM
O=C(/C=C/C(Cl)(Cl)Cl)Nc1ccc(Cl)cc1		1.43 µM		23.5 µM		9.82 µM		6.37 µM		1.82 µM		11.1 µM		18.9 µM		28.8 µM
Cc1ccc(-c2nc3cc(Cl)c(Cl)cc3nc2C#N)cc1	> 100 µM	> 100 µM	> 100 µM	> 100 µM	> 100 µM	> 100 µM	39 µM	> 100 µM	> 100 µM	> 100 µM	> 100 µM	> 100 µM	92.7 µM	> 100 µM	> 100 µM	> 100 µM
CC(c1ccccc1)[C@@H](C(=O)Nc1ccc(I)cc1F)N1C(=O)N[C@H](c2ccc(OC[C@H](O)CO)cc2)C1=O (some centres undefined)	> 17.8 µM	> 25 µM	0.85 µM	> 25 µM	15.2 µM	> 25 µM	8.48 µM	> 25 µM	2.04 µM	> 25 µM	> 11.1 µM	> 25 µM	0.0025 µM	0.0856 µM	> 25 µM	> 25 µM
CC(=O)N[C@H](C(=O)N[C@@H](CCCNC(=N)N)C(=O)N[C@@H](CCCCN)C(=O)N[C@@H](CCCNC(=N)N)C(=O)NC(C(=O)N[C@@H](CC(C)C)C(=O)N[C@@H](CCCNC(=N)N)C(=O)N[C@@]1(C)CCC/C=C\CCC[C@@](C)(C(=O)N[C@@H](CCCNC(=N)N)C(=O)N[C@@H](CCC(=O)O)C(=O)N[C@@H](CC(C)C)C(=O)N[C@H](C(=O)N[C@@H](CCC(=O)O)C(N)=O)C(C)C)NC(=O)[C@H](CCC(N)=O)NC(=O)[C@H](CC(C)C)NC(=O)[C@H](CC(C)C)NC1=O)[C@@H](C)O)C(C)C (stereo partly drawn) (Ac-VRKR[ξThr(3R)]LR[S5]LLQ[S5]RELVE-NH2; staple (Z) 8-12)	5.75 µM	16.4 µM	2.01 µM	8.43 µM	2.1 µM	8.62 µM	6.97 µM	14.7 µM			3.8 µM	10.8 µM	1.76 µM	7.14 µM	4.69 µM	12.1 µM
c1ccc(-c2n(Cc3ccc4ccccc4c3)cc[n+]2Cc2ccc3ccccc3c2)cc1			0.481 µM	1.69 µM			1.77 µM	3.43 µM	0.651 µM	2.13 µM	1.16 µM	2.58 µM	1.14 µM	2.56 µM	1.26 µM	2.55 µM
N#Cc1ccccc1C#C/C=C\C#CC#C/C=C\C#Cc1ccccc1C#N	3.15 µM	14.9 µM	10.4 µM	27.9 µM	12 µM	> 100 µM	7.39 µM	37.8 µM	15 µM	91.6 µM			14.6 µM	29.8 µM	16.3 µM	53 µM
COc1cc(/C=C/C(=O)N2CCC=CC2=O)cc(OC)c1OC	1.8 µM	3.75 µM	3.35 µM	12 µM	3.2 µM	12.6 µM	1.73 µM	3.28 µM	2.21 µM	11.2 µM	36.6 µM	> 100 µM	1.97 µM	3.97 µM	6.37 µM	21.1 µM
COc1ccccc1/C=C/C1=C(C)CCC(c2ccccc2OC)C1C (centres undefined)	0.113 µM		0.122 µM	0.379 µM	0.201 µM	> 73 µM	0.272 µM	> 100 µM	0.132 µM	> 63.5 µM	0.131 µM	76.5 µM	11.9 µM	> 100 µM	< 0.0201 µM	1.53 µM
O=CNc1ccc(S(=O)(=O)c2ccc(NC=O)cc2)cc1		> 100 µM		> 100 µM		> 100 µM		> 100 µM		> 100 µM		> 100 µM		> 100 µM		> 100 µM
COc1cccc2nc3ccccc3nc12				> 100 µM		> 100 µM		63.4 µM				> 100 µM		> 100 µM		> 100 µM
O=C(COc1ccc(OCC(=O)N2C(=O)CN(c3ccccc3)C2=S)cc1)N1C(=O)CN(c2ccccc2)C1=S	> 25 µM	> 100 µM	> 100 µM	> 100 µM		> 100 µM	> 25 µM	> 100 µM	29.3 µM	> 100 µM	33.7 µM	> 100 µM	36.7 µM	> 100 µM	> 25 µM	> 100 µM
COC1=C(OC)C(=O)C(Sc2ccc3ccccc3c2)=CC1=O				13.9 µM		36.3 µM		23.6 µM		39 µM		29.8 µM		28.4 µM		23.8 µM
Nc1nnnc2nc[nH]c12	2.02 µM	17 µM	2.02 µM	8.22 µM	3.19 µM	> 100 µM	1.08 µM	> 100 µM	4.75 µM	> 100 µM		> 100 µM	0.759 µM	7.06 µM	0.78 µM	> 29.8 µM
